Assay results as given in patent publication US12104192B2, “Method of preparing primary amines from amino acids using enzymatic conversion” (KOREA ADVANCED INSTITUTE OF SCIENCE AND TECHNOLOGY, priority 2020, dated 2024).

System: valine decarboxylase
Assay: Enzymatic activity assay of purified valine decarboxylase with amino acid substrates, HPLC detection of primary amine
Format: biochemical, Streptomyces viridifaciens
Conditions: 1 mM amino acid, 0.1 mM PLP, 150 μg purified his-tagged enzyme, 50 mM potassium phosphate buffer pH 7.5, 37° C., 2 hours
Method: An enzymatic activity assay was performed using a 50 mM potassium phosphate buffer (pH 7.5), and the substrate and enzyme used for the assay were added in the following amounts to the enzyme reaction solution.
Amino acids used as substrates were used at a concentration of 1 mM, and the amino acids used herein were L-alanine, L-2-aminobutyrate, 2-aminoisobutyrate, L-norvaline, L-valine, L-isovaline, L-norleucine, L-leucine, L-isoleucine, 1-aminocyclopentanecarboxylic acid, 1-aminocyclohexanecarboxylic acid, and L-2-phenylglycine. 0.1 mM pyridoxal phosphate (PLP) and 150 μg of the purified valine decarboxylase were added, followed by conducting reaction at 37° C. for 2 hours, and the sample after the reaction was analyzed by HPLC to identify primary amine.
Primary amine production was analyzed using HPLC (1100 Series HPLC; Agilent Technologies, Santa Clara, CA). The primary amine derivatization for analysis was performed in an automatic manner before analysis using an o-phthaldialdehyde (OPA; Sigma, St. Louis, MO) reagent. The OPA reagent for derivatization was prepared by dissolving 0.20 g of OPA reagent in 9.0 mL of methanol and then adding 1.0 mL of 0.40 M (pH 9.0) borate buffer and 160 μL of 2-mercaptoethanol thereto. For derivatization, 1 μL of the sample was mixed with 5 μL of 0.40 M (pH 9.0) borate buffer. Then, 1 μL of the OPA reagent for derivatization prepared above was added thereto, followed by HPLC analysis. Analysis was performed at 25° C. using an Eclipse plus C18 column (4.6×150 mm; Agilent Technologies). Solvent A for analysis was prepared by mixing 1.4 g/L of Na2HPO4 and 3.8 g/L of Na2B4O7·10H2O with 8 mg/L of NaN3, and adjusting the final pH of the resulting mixture to 7.2 using HCl. Solvent B was prepared by mixing 45% acetonitrile and 45% methanol with 10% H2O based on volume %. The solvent was fed at a rate of 2 mL/min. […] The derivatized secondary amines could be analyzed by detecting light with a wavelength of 230 nm using a variable wavelength detector (G1314A; Agilent Technologies).

Row | Compound | conversion of the amino acid substrate to the corresponding primary amine by valine decarboxylase
1 | NC1(C(=O)O)CCCCC1 [1-aminocyclohexanecarboxylic acid] | successfully converted
2 | NC1(C(=O)O)CCCC1 [1-aminocyclopentanecarboxylic acid] | successfully converted
3 | CC(C)(N)C(=O)O [2-aminobutyrate, 2-aminoisobutyrate] | successfully converted
4 | N[C@H](C(=O)O)c1ccccc1 [L-2-phenylglycine] | successfully converted
5 | C[C@H](N)C(=O)O [L-alanine] | successfully converted
6 | CC[C@H](C)[C@H](N)C(=O)O [L-isoleucine] | successfully converted
7 | CC[C@](C)(N)C(=O)O [L-isovaline] | successfully converted
8 | CC(C)C[C@H](N)C(=O)O [L-leucine] | successfully converted
9 | CCCC[C@H](N)C(=O)O [L-norleucine] | successfully converted
10 | CCC[C@H](N)C(=O)O [L-norvaline] | successfully converted
11 | CC(C)[C@H](N)C(=O)O [L-valine] | successfully converted
12 | L-2-aminobutyrate | successfully converted
